Data: patent US10899754B2, “Modulators of indoleamine 2,3-dioxygenase” (GLAXOSMITHKLINE INTELLECTUAL PROPERTY DEVELOPMENT LIMITED, priority 2016, dated 2021)

What was measured:
Assay type in all cases: cell-based
[1] = molecular target: T1, indoleamine 2, 3-dioxygenase (IDO1) (Homo sapiens, UniProt P14902); assay: IDO1 HeLa RapidFire MS assay (kynurenine detection by mass spectrometry); set-up: to induce the expression of indoleamine 2, 3-dioxygenase (IDO1); conditions: HeLa cells, pIC50, read-out: IDO1_HELA_PXC50 (converted)
Procedure: IDO1 HeLa RapidFire MS Assay
(§1) Compounds of the present invention were tested via high-throughput cellular assays utilizing detection of kynurenine via mass spectrometry and cytotoxicity as end-points. For the mass spectrometry and cytotoxicity assays, human epithelial HeLa cells (CCL-2; ATCC®, Manassas, Va.) were stimulated with human interferon-γ (IFN-γ) (Sigma-Aldrich Corporation, St. Louis, Mo.) to induce the expression of indoleamine 2, 3-dioxygenase (IDO1). Compounds with IDO1 inhibitory properties decreased the amount of kynurenine produced by the cells via the tryptophan catabolic pathway. Cellular toxicity due to the effect of compound treatment was measured using CellTiter-Glo® reagent (CTG) (Promega Corporation, Madison, Wis.), which is based on luminescent detection of ATP, an indicator of metabolically active cells.
(§2) In preparation for the assays, test compounds were serially diluted 3-fold in DMSO from a typical top concentration of 1 mM or 5 mM and plated at 0.5 μL in 384-well, polystyrene, clear bottom, tissue culture treated plates with lids (Greiner Bio-One, Kremsmünster, Austria) to generate 11-point dose response curves. Low control wells (0% kynurenine or 100% cytotoxicity) contained either 0.5 μL of DMSO in the presence of unstimulated (−IFN-γ) HeLa cells for the mass spectrometry assay or 0.5 μL of DMSO in the absence of cells for the cytotoxicity assay, and high control wells (100% kynurenine or 0% cytotoxicity) contained 0.5 μL of DMSO in the presence of stimulated (+IFN-γ) HeLa cells for both the mass spectrometry and cytotoxicity assays.
(§3) Frozen stocks of HeLa cells were washed and recovered in DMEM high glucose medium with HEPES (Thermo Fisher Scientific, Inc., Waltham, Mass.) supplemented with 10% v/v certified fetal bovine serum (FBS) (Thermo Fisher Scientific, Inc., Waltham, Mass.), and 1× penicillin-streptomycin antibiotic solution (Thermo Fisher Scientific, Inc., Waltham, Mass.). The cells were diluted to 100,000 cells/mL in the supplemented DMEM medium. 50 μL of either the cell suspension, for the mass spectrometry assay, or medium alone, for the cytotoxicity assay, were added to the low control wells, on the previously prepared 384-well compound plates, resulting in 5,000 cells/well or 0 cells/well respectively. IFN-γ was added to the remaining cell suspension at a final concentration of 10 nM, and 50 μL of the stimulated cells were added to all remaining wells on the 384-well compound plates. The plates, with lids, were then placed in a 37° C., 5% CO2 humidified incubator for 2 days.
(§4) Following incubation, the 384-well plates were removed from the incubator and allowed to equilibrate to room temperature for 30 minutes. For the cytotoxicity assay, CellTiter-Glo® was prepared according to the manufacturer's instructions, and 10 μL were added to each plate well. After a twenty minute incubation at room temperature, luminescence was read on an EnVision® Multilabel Reader (PerkinElmer Inc., Waltham, Mass.). For the mass spectrometry assay, 10 μL of supernatant from each well of the compound-treated plates were added to 40 μL of acetonitrile, containing 10 μM of an internal standard for normalization, in 384-well, polypropylene, V-bottom plates (Greiner Bio-One, Kremsmünster, Austria) to extract the organic analytes. Following centrifugation at 2000 rpm for 10 minutes, 10 μL from each well of the acetonitrile extraction plates were added to 90 μL of sterile, distilled H2O in 384-well, polypropylene, V-bottom plates for analysis of kynurenine and the internal standard on the RapidFire 300 (Agilent Technologies, Santa Clara, Calif.) and 4000 QTRAP MS (SCIEX, Framingham, Mass.). MS data were integrated using Agilent Technologies' RapidFire Integrator software, and data were normalized for analysis as a ratio of kynurenine to the internal standard. […]

[2] = tested on: human epithelial HeLa cells; assay: HeLa cytotoxicity assay (CellTiter-Glo); conditions: pCC50
Procedure: as §1, §2, §3, §4

[3] = molecular target: T1, indoleamine 2, 3-dioxygenase (IDO1); assay: IDO1 PBMC RapidFire MS assay (kynurenine detection by mass spectrometry); set-up: to induce the expression of indoleamine 2, 3-dioxygenase (IDO1); host or cells: human PBMC stimulated with IFN-gamma and LPS; conditions: human PBMC stimulated with IFN-γ and LPS, 2 days, pIC50, read-out: PBMC PXC50 (converted)
Method in brief: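 PBMCs (50,000 cells/well) stimulated with IFN-γ 100 ng/ml plus LPS 50 ng/ml, treated with 11-point 3-fold compound series for 2 days at 37° C. Supernatant kynurenine measured by RapidFire MS, normalised to internal standard; parallel cytotoxicity by CellTiter-Glo luminescence; curves fitted for XC50.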

[4] = tested on: human peripheral blood mononuclear cells (PBMC); assay: PBMC cytotoxicity assay (CellTiter-Glo); conditions: 2 days, pCC50
Method in brief: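 Human PBMC (50,000 cells/well) stimulated with IFN-γ 100 ng/ml and LPS 50 ng/ml were exposed to 11-point 3-fold compound dilutions for 2 days at 37 °C, 5% CO2. Viability read by CellTiter-Glo ATP luminescence and normalized to no-cell and stimulated-DMSO controls. XC50 derived by four-parameter fit.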

T1 sequence (P14902 whole entry): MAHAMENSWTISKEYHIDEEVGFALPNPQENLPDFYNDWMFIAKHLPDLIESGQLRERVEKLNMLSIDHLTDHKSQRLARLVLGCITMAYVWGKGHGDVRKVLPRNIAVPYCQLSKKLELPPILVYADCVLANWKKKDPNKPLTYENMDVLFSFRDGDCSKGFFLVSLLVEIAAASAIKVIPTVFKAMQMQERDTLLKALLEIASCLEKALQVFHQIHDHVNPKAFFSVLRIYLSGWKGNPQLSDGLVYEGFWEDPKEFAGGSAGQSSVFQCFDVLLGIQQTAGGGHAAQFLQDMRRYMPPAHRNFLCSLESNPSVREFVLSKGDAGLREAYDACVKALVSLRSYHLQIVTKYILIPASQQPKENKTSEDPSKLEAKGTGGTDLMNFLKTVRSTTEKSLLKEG

SMILES	IC50 [1]	IC50 [3]	HELA_IDO1_TOX_PXC50 [2]	PBMC TOX PXC50 [4]
CC(C)CN(c1ccc(C(C)CC(=O)O)cc1NC1CCS(=O)(=O)CC1)C1CCCCC1 (stereo not shown) [example 134, 3-{4-[cyclohexyl(2-methylpropyl)amino]-3-[(1,1-dioxo-1λ^6-thian-4-yl)amino]phenyl}butanoic acid]	3.16 µM	–	<5	–
CC(C)CN(c1ccc(C(C)CC(=O)O)cc1NCc1c[nH]cn1)C1CCCCC1 (stereo not shown) [example 159, 3-{4-[cyclohexyl(2-methylpropyl)amino]-3-{[(1H-imidazol-4-yl)methyl]amino}phenyl} butanoic acid]	–	5.01 µM	<5	<5
CC(C)CN(c1ccc(-c2cccnc2C(=O)O)cc1Nc1nc2ccccc2[nH]1)C1CCCCC1 [example 278, 3-{3-[(1H-1,3-benzodiazol-2-yl)amino]-4-[cyclohexyl(2-methylpropyl)amino]phenyl}pyridine-2-carboxylic acid]	0.0501 µM	–	<5	–
CC(C)CN(CC(C)C)c1ccc([C@@H]2C[C@@H]2C(=O)O)cc1Nc1nc(C(F)(F)F)ns1 (single isomer, unassigned) [example 209]	0.02 µM	0.0501 µM	–	<5
CC(C)CN(c1ccc(C(C)CC(=O)O)cc1NC1CCN(C)CC1)C1CCCCC1 (stereo not shown) [example 140, 3-{4-[cyclohexyl(2-methylpropyl)amino]-3-[(1-methylpiperidin-4-yl)amino]phenyl}butanoic acid]	3.16 µM	–	<5	–
CC(C)CN(c1ccc([C@H](C)CC(=O)O)cc1NC1CCC(C)(C)CC1)C1CCCCC1 [example 182, (3R)-3-{4-[cyclohexyl(2-methylpropyl)amino]-3-[(4,4-dimethylcyclohexyl)ami-no]phenyl}butanoic acid]	5.01 µM	–	<5	–
CC(C)CN(c1ccc(-c2ccccc2C(=O)O)cc1Nc1nc(C(F)(F)F)ns1)C1CCN(CCO)CC1 [example 271, 4′-{[1-(2-hydroxyethyl)piperidin-4-yl](2-methylpropyl)amino}-3′-{[3-(trifluoromethyl)-1,2,4-thiadiazol-5-yl]amino}-[1,1′-biphenyl]-2-carboxylic acid]	6.31 µM	–	<5	–
CC(C)CN(CC(C)C)c1ccc([C@@H]2C[C@@H]2C(=O)O)cc1Nc1nc(C(F)(F)F)ns1 (single isomer, unassigned) [example 206]	0.0316 µM	–	<5	–
CC(C)CN(CC(C)C)c1ccc(C(C)CC(=O)O)cc1Nc1nnc(-c2ccccc2)o1.O=C(O)C(F)(F)F (stereo not shown) [example 123, 3-{4-[bis(2-methylpropyl)amino]-3-[(5-phenyl-1,3,4-oxadiazol-2-yl)amino]phenyl}butanoic acid]	–	–	<4.3	–
CC(C)CN(CC(C)C)c1ccc(C(C)CC(=O)O)cc1Nc1nc(N2CCC2)ns1 (stereo not shown) [example 120, 3-(3-{[3-(azetidin-1-yl) 1,2,4-thiadiazol-5-yl]amino}-4-[bis(2-methylpropyl)amino]phenyl)butanoic acid]	–	–	<4.3	4.7
CC(C)CN(c1ccc(/C=C/C(=O)O)cc1Nc1nc2ccccc2o1)C1CCCCC1 [example 137, (2E)-3-{3-[(1,3-benzoxazol-2-yl)amino]-4-[cyclohexyl(2-methylpropyl)amino]phenyl}prop-2-enoic acid]	–	–	<5	–
COCc1nnc(Nc2cc([C@H](C)CC(=O)O)ccc2N(CC(C)C)C2CCOCC2)s1 [example 216, (3R)-3-(3-{[5-(methoxymethyl)-1,3,4-thiadiazol-2-yl]amino}-4-[(2-methylpropyl)(oxan-4-yl)amino]phenyl)butanoic acid]	0.0501 µM	0.0398 µM	–	<5

Second part, led by results:

IC50 [1]	IC50 [3]	SMILES	HELA_IDO1_TOX_PXC50 [2]	PBMC TOX PXC50 [4]
0.631 µM	–	CC(C)CN(CC(C)C)c1ccc(C(C)CC(=O)O)cc1Nc1nnc(C2CC2)o1.O=C(O)C(F)(F)F (stereo not shown) [example 126, 3-{4-[bis(2-methylpropyl)amino]-3-[(5-cyclopropyl-1,3,4-oxadiazol-2-yl)amino]phenyl}butanoic acid]	<4.3	–
5.01 µM	–	CC(C)CN(CC(C)C)c1ccc(C(C)CC(=O)O)cc1Nc1nnc(NS(C)(=O)=O)s1 (stereo not shown) [example 192, 3-{4-[bis(2-methylpropyl)amino]-3-[(5-methanesulfonamido-1,3,4-thiadiazol-2-yl)amino]phenyl}butanoic acid]	<5	–
3.16 µM	–	CC(C)CN(CC(C)C)c1ccc(C(C)CC(=O)O)cc1Nc1nnc(CC(N)=O)s1 (stereo not shown) [example 195, 3-{4-[bis(2-methylpropyl)amino]-3-{[5-(carbamoylmethyl)-1,3,4-thiadiazol-2-yl]amino}phenyl}butanoic acid]	<5	–
3.16 µM	–	CC(C)CN(c1ccc(-c2cnn(C)c2C(=O)O)cc1Nc1nc2ccccc2o1)C1CCCCC1 [example 178, 4-{3-[(1,3-benzoxazol-2-yl)amino]-4-[cyclohexyl(2-methylpropyl)amino]phenyl}-1-methyl-1H-pyrazole-5-carboxylic acid]	<5	–
0.631 µM	–	CC(C)CN(CC(C)C)c1ccc(C(C)CC(=O)O)cc1Nc1cnc(CO)s1 (stereo not shown) [example 207, 3-{4-[bis(2-methylpropyl)amino]-3-{[2-(hydroxymethyl)-1,3-thiazol-5-yl]amino}phenyl}butanoic acid]	<5	–
2.51 µM	–	CC(C)CN(CC(C)C)c1ccc(C(C)CC(=O)O)cc1Nc1nc(-c2ccccc2)cs1 (stereo not shown) [example 128, 3-{4-[bis(2-methylpropyl)amino]-3-[(4-phenyl-1,3-thiazol-2-yl)amino]phenyl}butanoic acid]	4.4	–
0.0794 µM	–	COCc1nnc(Nc2cc([C@H](C)CC(=O)O)ccc2N(CC(C)C)CC(C)C)[nH]1 [example 190, (3R)-3-{4-[bis(2-methylpropyl)amino]-3-{[5-(methoxymethyl)-4H-1,2,4-triazol-3-yl]amino}phenyl}butanoic acid]	<5	–
0.794 µM	–	CC(C)CN(c1ccc(C(C)CC(=O)O)cc1Nc1nc2ccccn2n1)C1CCCCC1 (stereo not shown) [example 145, 3-{4-[cyclohexyl(2-methylpropyl)amino]-3-({[1,2,4]triazolo[1,5-a]pyridin-2-yl)amino)phenyl}butanoic acid]	<5	–
7.94 µM	–	CC(C)CN(CC(C)C)c1ccc(C(C)CC(=O)O)cc1Nc1ncc(-c2ccccc2)o1 (stereo not shown) [example 121, 3-{4-[bis(2-methylpropyl)amino]-3-[(5-phenyl-1,3-oxazol-2-yl)amino]phenyl}butanoic acid]	4.4	–
